Reference: the METLIN SMRT retention time set (Domingo-Almenara et al. 2019)

assay: gradient 5% acetonitrile 3 min, to 50% in 2 min, to 85% in 15 min, held 3 min, 100 µL/min; settings: column: Zorbax Extend-C18 2.1 x 50 mm; eluents: water / acetonitrile, 0.1% formic acid
Outline: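 Pure standards were analyzed in mixtures of ~100 molecules using HPLC coupled to a quadrupole time-of-flight mass spectrometer, in both positive and negative ionization mode. Separation used a Zorbax Extend-C18 column (2.1 × 50 mm, 1.8 μm) at 100 μL/min, with water and acetonitrile each containing 0.1% formic acid. Dead and dwell volumes were 40 μL and 900 μL, and data were collected over 3 months. Retention time was read from computationally picked adduct peaks, each inspected manually.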

SMILES	RP-LC retention time [s]
COCCCNC(=O)c1ccc2c(c1)N(Cc1ccc(F)cc1)C(=O)CO2	711
Cc1ccc(-n2nc(C)c3sc(N(C)CC(=O)N4CCC5(CC4)OCCO5)nc32)cc1	932
CCOc1ccc(-c2nc(-c3ccc4c(c3)oc(=O)n4C(C)C)no2)cc1OCC	1260
N#Cc1cccc(C(=O)NC2CCN(C(=O)C3CC3)C2)c1 (stereo unspecified)	651
Cc1ccsc1CN1CCc2oc(C)c(C(=O)N3CCOCC3)c2C1	536
COC(=O)c1cc(C(=O)OC)cc(-n2ccc3nc(C)c(C(=O)OC)cc3c2=O)c1	844
CCCn1ccc2oc(C)c(C(=O)N3CCN(C4CCCCC4)CC3)c2c1=O	612
Cc1cc(C(=O)Nc2nc(-c3ccc(F)cc3)c(C)s2)no1	976
COc1ccc(-c2nc(C)cc3nn(CC(=O)Nc4cc(C)cc(C)c4)c(=O)n23)cc1	906
Cc1ccc(NC(=O)C2CCN(C(=O)c3ncn4c3COC(c3ccc(F)cc3)C4)CC2)c(Cl)c1 (stereo unspecified)	842
CCCNC(=O)C1CCN(c2ccc(SCC(=O)Nc3cc(C)c(Cl)cc3OC)nn2)CC1	766
CCOc1ccc(N2CCn3c2nnc(C(=O)NCc2ccco2)c3=O)cc1	684
CC(C)C(=O)Nc1ccc2ncnc(N3CCCC3)c2c1	591
C=CCOc1ccnc(-c2ccccc2)n1	1110
O=C(NCCc1cccs1)C1CCN(c2cc(N3CCOCC3)ncn2)CC1	607
Cc1ccc(-c2nc3cnccn3c2NCCC(=O)NC(C)c2cccnc2)cc1 (stereo unspecified)	569
Cc1ccc(NC(=O)c2cnc(-c3ccccc3)nc2-c2ccncc2)c(Br)c1	987
O=C(Cn1cnc(-c2noc(-c3ccc(F)cc3)n2)c1)NCc1ccc(F)cc1	857
CCn1cc(C(=O)Nc2cccc(Br)c2)c2nn(-c3ccccc3)c(=O)c-2c1	1090

SMILES	RP-LC retention time [s]
COc1cccc(CSc2ccc(-n3nc4c(c3C)CCC4)nn2)c1	1240
Cc1cccc(-c2nc(C3CCN(S(=O)(=O)c4ccccc4)CC3)no2)c1	1150
CC(C)OC(=O)Cn1nc2ccc(S(=O)(=O)N3CCSCC3)cn2c1=O	829
CCCc1ccc(-c2cc(C(=O)N3CCN(c4ncccn4)CC3)c3ccccc3n2)cc1	1180
CC(C)Cn1cc(CCNS(=O)(=O)Cc2cccc(Cl)c2)c2cccnc21	969
CC(C)(C)CC(=O)N1CCCC(C(=O)N2CCOCC2)C1 (stereo unspecified)	673
CCCN1CCN(C(=O)C2CCN(S(=O)(=O)c3ccc4c(c3)sc(=O)n4CC)CC2)CC1	623
Cc1ccc(C)c(Cn2nc3ccc(S(=O)(=O)N4CCCCCC4)cn3c2=O)c1	1090
CCNc1cc(N2CCC(CCC(=O)N3CCN(C(C)=O)CC3)CC2)ncn1	562
Cc1nn(-c2nc(CC(=O)N(CCO)Cc3ccccc3)cs2)c(C)c1Cl	943
Cc1cc(C)c(S(=O)(=O)N2CCCCC2)c(C)c1N(C)S(=O)(=O)c1ccccc1	1060
CC(/C=C/C(=O)NO)=C\C(C)C(=O)c1ccc(N(C)C)cc1 (stereo unspecified)	723
Cc1ccc(-c2nnc(-c3ccccc3Cl)o2)cc1S(=O)(=O)N1CCCCC1	1200
Cc1ccc(C)c(OCC(=O)Nc2nc(-c3ccc(Br)cc3)cs2)c1C	1430
O=C1COc2ccc(S(=O)(=O)N3CCC(C(=O)Nc4ccccc4)CC3)cc2N1	759
O=c1c2sccc2n(Cc2nc(-c3ccc(Cl)c(F)c3)no2)c(=O)n1CCc1ccccc1	1280
O=C(c1ccco1)N1CCN(c2ccc(=O)n(-c3cccc(Cl)c3)n2)CC1	753
COc1ccc(-n2ncc3c(=O)n(Cc4nc(-c5cccc(OC)c5)no4)cnc32)cc1	984
CC(C)c1nccn1C1CN(C(=O)C2CCCCC2)C1	594

Continued, values first:

RP-LC retention time [s]	SMILES
575	COCC1CN(C(=O)c2sccc2C)CC12CCNCC2 (stereo unspecified)
1190	Cc1nn(-c2ccc(F)cc2)c2nc(N3CCCC(C(=O)NC4CCCCC4)C3)sc12 (stereo unspecified)
681	CN(C)S(=O)(=O)NCc1nnnn1C1CCCCC1
638	Cc1ccc(CN2CCC(CNC(=O)Cn3c(=O)c(C)nc4cc(C)c(C)cc43)C2)cc1 (stereo unspecified)
634	CC(C)CN1CCn2cc(C(=O)NCC3CCCCC3)nc2C1
1240	CCC1CN(S(=O)(=O)c2cc(-c3cc(C)no3)cs2)c2cc(Cl)ccc2O1 (stereo unspecified)
784	Clc1cc(Cl)cc(-c2ccc(CNCc3ccco3)o2)c1
1150	CCOc1ccc(S(=O)(=O)N2CCC(c3noc(-c4cccc(OC)c4)n3)CC2)cc1
810	COc1cccc(NC(=O)C2CCN(S(C)(=O)=O)c3ccccc3O2)c1 (stereo unspecified)
869	COc1ccc(NC(=O)CN2C(=O)C(C)(C)c3ccccc32)c(OC)c1
860	Cc1cccc2c1NC(=O)C2(O)CC(=O)c1ccc(C(C)C)cc1 (stereo unspecified)
838	Cc1ccc(N2C(=O)CN(S(C)(=O)=O)CC2(C)C(=O)NCc2ccccc2)c(C)c1 (stereo unspecified)
626	CCCc1noc(-c2cccn3c(CC(=O)N4CCOCC4)nnc23)n1
732	CC(C)Cn1nc2ccc(S(=O)(=O)N3CCOCC3)cn2c1=O
866	O=C(NCc1cnoc1-c1ccc(F)cc1)c1ccccc1F
1080	Cc1csc(-c2cc(S(=O)(=O)Nc3ccc(Cl)cc3F)c(C)s2)n1
837	CN(C)C(=O)c1cc2sc(Cl)cc2n1C
694	CCc1cccc(C)c1NC(=O)Cn1cnc2nc(N3CCCC(C(=O)NC4CC4)C3)sc2c1=O (stereo unspecified)
901	O=C(NCc1ccc(C(F)(F)F)cc1)C1CCN(c2nnc(-c3ccccc3)o2)CC1
680	Cc1nc2ccccc2nc1N1CCCC1
984	O=C(Cn1nc2c(N3CCc4ccccc4C3)nccn2c1=O)NCCC1=CCCCC1
799	O=C(C1CC1)N1CCc2sc(S(=O)(=O)Nc3ccc(F)cc3)cc2C1
646	CCOc1ccc(C(=O)N2CCCCC2c2nncn2C)cc1OCC (stereo unspecified)
1330	Cc1cc(OCc2nc(C)c(C(=O)Nc3nc(-c4ccccc4)cs3)s2)ccc1Cl
813	COc1ccc2[nH]cc(CCNC(=O)C(C)n3c4ccccc4c4cnn(C)c(=O)c43)c2c1 (stereo unspecified)
860	CCCNC(=O)c1cn(-c2cc(-c3nc(C(C)C)no3)ccn2)cn1
992	Cc1ccc(NC(=O)C2CCN(S(C)(=O)=O)c3cc(Cl)ccc3O2)c(C)c1 (stereo unspecified)
817	Cc1cc2c(cc1S(=O)(=O)N1CCCC1C(=O)Nc1cccc(Cl)c1)OCC(=O)N2 (stereo unspecified)
